Experimental data: patent US12570988B2, “Aptamers that bind thiamine analogs and derivatives” (MeiraGTx Gene Regulation Limited, priority 2020, dated 2026)

How the values were obtained:
[1] = system: riboswitch 15D10; assay: Luciferase reporter with 15D10 riboswitch (Luci-15D10) in HEK 293 cells; assay type: cell-based, human; settings: for fold induction at 50 µM: Homo sapiens, HEK293, 24 h, read-out: Fold increase in riboswitch 15D10-regulated luciferase expression, HEK; for effect on luciferase expression from Luci-15D10: FIG. 9A, 9C
In short: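 Cells transfected with riboswitch-luciferase plasmid; 4 h later medium replaced with TPP or thiamine analogs (fursultiamine, prosultiamine, bisbentiamine, beclotiamine, sulbutiamine) as inducers.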

[2] = system: riboswitch 15D10; assay: Luciferase reporter with 15D10 riboswitch (Luci-15D10) in AML12 cells; assay type: cell-based, mouse; settings: for luciferase regulation in response to ligand, riboswitch 15D10: FIG. 6B; for fold induction at 50 µM: Mus musculus, AML12, 24 h, read-out: Fold increase in riboswitch 15D10-regulated luciferase expression, AML; for relative potency in inducing luciferase expression: AML 12 cells, compared with fursultiamine or within groups
[3] = system: riboswitch TPPz (A. tabrizica thiC TPP aptamer); assay: Luciferase reporter with TPPz riboswitch in HEK 293 cells; assay type: cell-based, human; settings: FIG. 1
From the text: (§1) Riboswitch constructs: Aptamers were synthesized by Integrated DNA Technologies, Inc. and Golden Gate cloning strategy (New England Biolabs, NEB) was used to clone the synthesized aptamer sequences into intron-exon-intron cassette to replace the guanine aptamer in the G17 riboswitch cassette (see SEQ ID NO: 15 recited in WO 2016/126747, which is incorporated herein in its entirety) with a TPP aptamer from the Alishewanella tabrizica thiC gene (Microbiol Res. 2017 January; 195:71-80) or a TPP aptamer from the Escherichia coli thiM gene (Structure. 2006 September; 14(9):1459-68), generating riboswitch TPPz and TPPm, respectively.
(§2) Transfection: 3.5×10^4 human embryonic kidney (HEK) 293 cells were plated in a 96-well flat bottom plate the day before transfection. Plasmid DNA (500 ng) was added to a tube or a 96-well U-bottom plate. Separately, TransIT-293 reagent (Mirus; 1.4 μL) was added to 50 μL Optimem I media (Life Technologies) and allowed to sit for 5 minutes at room temperature (RT). Then, 50 μL of this diluted transfection reagent was added to the DNA, mixed, and incubated at RT for 20 min. Finally, 7 μL of this solution was added to a well of cells in the 96-well plate. Four hours after transfection, medium containing transfection solution was replaced by medium containing either TPP, fursultiamine, prosultiamine, bisbentiamine, beclotiamine hydrochloride, or sulbutiamine as aptamer inducers.
(§3) Firefly luciferase assay of cultured cells: Twenty-four hours after media change, plates were removed from the incubator, and equilibrated to RT for several minutes on a lab bench, then aspirated. Glo-lysis buffer (Promega, 100 μL, RT) was added, and the plates allowed to remain at RT for at least 5 minutes. Then, the well contents were mixed by 50 μL trituration, and 20 μL of each sample was mixed with 20 μL of bright-glo reagent (Promega) that had been diluted to 10% in glo-lysis buffer. 96 wells were spaced on an opaque white 384-well plate. Following a 5 min incubation at RT, luminescence was measured using a Tecan machine with 500 ms read time. The luciferase activity was expressed as mean arbitrary light units (ALU)±S.D., and fold induction was calculated as the quotient of the luciferase activity obtained from cells with TPP or analog treatment divided by the luciferase activity obtained from cells without TPP or analog treatment.

[4] = system: riboswitch TPPm (E. coli thiM TPP aptamer); assay: Luciferase reporter with TPPm riboswitch in HEK 293 cells; assay type: cell-based, human; settings: FIG. 1
From the text: as §1, §2, §3

[5] = system: 14G4 riboswitch; settings: HEK 293 cells; dose dependent; FIG. 2
From the text: Riboswitch construction: TPP aptamer homologous sequences were obtained from Rfam 12.0 (https://rfam.xfam.org/) and synthesized (Twister Biotech).
To identify aptamers with increased gene regulation activity in response to thiamine analogs as compared to TPPz and TPPm, a putative TPP aptamer with homologous sequence was obtained from Rfam 12.0 (RNA family database RF00059, http://rfam.xfam.org/family/RF00059).

[6] = system: riboswitch comprising aptamer 15A5; assay: Luciferase reporter with 15A5 riboswitch in AML12 cells; assay type: cell-based, mouse; settings: FIG. 6B
[7] = system: riboswitch comprising aptamer 6B4
From the text: (§4) Riboswitch constructs: Alternative splicing riboswitches containing aptamers 3H4 or 15D10, respectively, were inserted at position 308 into the mouse erythropoietin cDNA sequence in construct Con8-Epo (SEQ ID NO:85), resulting in constructs Epo-3H4 (SEQ ID NO:86) and Epo-15D10 (SEQ ID NO:87). Expression of the erythropoietin gene was driven by a cytomegalovirus (CMV) promoter. The riboswitch cassette containing aptamer 6B4 was inserted at position 276 into the cDNA sequence encoding enhanced green fluorescent protein (EGFP) in vector pEGFP-C1 to generate the EGFP-6B4 construct (SEQ ID NO:88). The intron-exon-intron cassette without aptamer sequence was inserted into Con8-Epo to create construct Epo-Con1 (SEQ ID NO:89), serving as a control for constitutive target gene expression.

[8] = system: riboswitch comprising aptamer 15D10; settings: 12.5 μM, AML12 cells
From the text: as §4
(§5) Enzyme-linked immunosorbent assay (ELISA) for mouse erythropoietin: AML12 cells were transfected as described in Example 1 with TransIT-X2 transfection reagent (Mirus Bio). Four hours after transfection, AML12 cells were treated with or without fursultiamine at the indicated doses. The supernatants from the transfected cells were collected 24 hours after fursultiamine treatment and were subjected to ELISA for the detection of mEpo in the supernatant following the manufacturer's instruction (R&D).

[9] = system: riboswitch comprising aptamer 3H4; settings: 12.5 μM; AML12 cells; versus absence of fursultiamine
From the text: as §4, §5

[10] = system: riboswitch 15D10; assay: Luci-15D10 luciferase reporter in ARPE-19 cells; assay type: cell-based, human; settings: FIG. 9E
[11] = system: riboswitch 15D10; assay: Luci-15D10 luciferase reporter in Hep G2 cells; assay type: cell-based, human; settings: potency compared at 12.5 μM, FIG. 9F
[12] = system: riboswitch 3H4; assay: In vivo bioluminescence imaging, mice given AAV luci-3H4; design: species or system Balb/c mice
From the text: (§6) AAV2.8 viral particle production: The AAV2.8 particles used for the transfection of mice comprised a viral genome derived from AAV2 and a capsid derived from AAV8. The luciferase gene containing an intron-exon-intron cassette with (1) a non-regulatable riboswitch without aptamer (“luci-Con1”, SEQ ID NO:90), (2) a riboswitch cassette comprising aptamer 3H4 (“luci-3H4”, SEQ ID NO:91), or (3) a riboswitch cassette comprising aptamer 6B4 (“luci-6B4”, SEQ ID NO:92), respectively, was cloned into an AAV2 plasmid vector. Expression of the luciferase gene was controlled by a CASI promoter, which includes CMV and ubiquitin C enhancer elements and the chicken β-actin promoter. The viral vector was packaged into AAV8 capsid and produced following manufacture's protocol (Vigene Biosciences).
(§7) Animal study: Male Balb/c mice received a single tail vein injection of 1.0×10^11 or 2.5×10^11 genome copies of the receptive AAV2.8 viral particle. Twenty-eight days after AAV vector delivery, mice were treated intraperitoneally (IP.) with 50 mg/kg prosultiamine. Luciferase activity was measured the day prior to drug dosing, as well as 6 h, 24 h, 48 h and 72 h after drug dosing. After the first administration of prosultiamine, the mice were subjected to three additional rounds of dosing and imaging cycles as follows: Day 36 (after AAV administration):100 mg/kg; day 43: 200 mg/kg; and day 51: 400 mg/kg.
(§8) Noninvasive live animal bioluminescence imaging: Before imaging, mice were anesthetized with 2% isoflurane, and injected with 150 mg/kg body weight of luciferin. At the indicated time point post drug dosing, images were taken within 2 to 5 minutes after luciferin injection using a Bruker Xtreme system. Luciferase activity was expressed as mean photon/s±S.D. (n=5). The fold induction of luciferase gene expression was calculated as the quotient of photon/s obtained from mice treated with prosultiamine divided by the value obtained from mice the day before prosultiamine treatment.

[13] = system: riboswitch 6B4; assay: In vivo bioluminescence imaging, mice given AAV luci-6B4; design: species or system Balb/c mice
From the text: as §6, §7, §8

[14] = 50 mg/kg IP single dose, six hours after dosing
[15] = 50 mg/kg and 100 mg/kg IP doses
[16] = 200 mg/kg and 400 mg/kg IP doses

## CC(=C(CCO)SSCC1CCCO1)N(C=O)Cc1cnc(C)nc1N (stereo in doubt) [fursultiamine]
[1]
  fold induction at 50 µM: 446
[2]; AML12 cells
  luciferase regulation in response to ligand, riboswitch 15D10: robustly regulate luciferase expression
[2]
  fold induction at 50 µM: 315
[3]
  effect on luciferase expression, riboswitch TPPz: induce luciferase expression
[4]
  effect on luciferase expression, riboswitch TPPm: induce luciferase expression
[5]
  increase in luciferase expression, 14G4 riboswitch: 100 fold
[6]
  luciferase regulation in response to ligand, riboswitch 15A5: robustly regulate luciferase expression
[7]
  increase in EGFP expression: 14 fold
[8]
  level of mEpo from mEpo-15D10 relative to constitutive mEpo-Con1 construct: approximately 61.3%
[8]; versus absence of fursultiamine
  induction of mEpo expression, Epo-15D10: about 40 fold
[9]
  induction of mEpo expression, Epo-3H4: ~9 fold

## C/C(=C(\CCO)SCOC(=O)C12CC3CC(CC(C3)C1)C2)N(C=O)Cc1cnc(C)nc1N [Compound M19, (((Z)-2-(N-((4-Amino-2-methylpyrimidin-5-yl)methyl)formamido)-5-hydroxypent-2-en-3-yl)thio)methyl (3r,5r,7r)-adamantane-1-carboxylate]
[1]; 12.5 μM, HEK 293 cells
  fold increase in luciferase expression: 168.7 fold
[1]; HEK 293 cells
  effect on luciferase expression from Luci-15D10: increased
[1]; HEK 293 cells, compared with fursultiamine or within Formula V/VI groups
  relative potency in inducing luciferase expression: more potent
[1]; 50 μM, HEK 293 cells, Table 2
  fold induction at 50 µM: 676
[2]
  relative potency in inducing luciferase expression: more potent than fursultiamine
[2]; 50 μM, AML12 cells, Table 2
  fold induction at 50 µM: 330
[10]
  activity in increasing riboswitch 15D10-regulated luciferase expression: equivalent potency to fursultaimine

## C/C(=C(\CCO)SCOC(=O)c1ccccc1)N(C=O)Cc1cnc(C)nc1N [Compound M21, (Z)-((2-(N-((4-Amino-2-methylpyrimidin-5-yl)methyl)formamido)-5-hydroxypent-2-en-3-yl)thio)methyl benzoate]
[1]; HEK 293 cells
  effect on luciferase expression from Luci-15D10: increased
[1]; 50 μM, HEK 293 cells, Table 2
  fold induction at 50 µM: 618
[2]
  relative potency in inducing luciferase expression: more potent than fursultiamine
[2]; 50 μM, AML12 cells, Table 2
  fold induction at 50 µM: 229
[10]
  activity in increasing riboswitch 15D10-regulated luciferase expression: equivalent potency to fursultaimine

## COc1ccc(C(=O)S/C(CCOP(=O)(O)O)=C(/C)N(C=O)Cc2cnc(C)nc2N)cc1 [Compound M32, (Z)—S-(2-(N-((4-Amino-2-methylpyrimidin-5-yl)methyl)formamido)-5-(phosphonooxy)pent-2-en-3-yl) 4-methoxybenzothioate]
[1]; HEK 293 cells
  effect on luciferase expression from Luci-15D10: no effect on luciferase expression
[10]
  activity in increasing riboswitch 15D10-regulated luciferase expression: no activity
[11]
  activity in increasing riboswitch 15D10-regulated luciferase expression: no activity

## Cc1ncc(C[n+]2csc(CCO[P@](=O)(O)OP(=O)(O)O)c2C)c(N)n1 [TPP, thiamine pyrophosphate]
[2]; AML12 cells
  luciferase regulation in response to ligand, riboswitch 15D10: respond very poorly
[3]
  effect on luciferase expression, riboswitch TPPz: regulate luciferase expression
[4]
  effect on luciferase expression, riboswitch TPPm: regulate luciferase expression
[6]
  luciferase regulation in response to ligand, riboswitch 15A5: respond very poorly

## C/C(=C(\CCOP(=O)(O)O)SC(=O)c1ccccc1)N(C=O)Cc1cnc(C)nc1N [benfotiamine, reference compound]
[1]; HEK 293 cells
  effect on luciferase expression from Luci-15D10: no effect on luciferase expression
[2]; AML12 cells
  luciferase regulation in response to ligand, riboswitch 15D10: robustly regulate luciferase expression
[10]
  activity in increasing riboswitch 15D10-regulated luciferase expression: no activity
[11]
  activity in increasing riboswitch 15D10-regulated luciferase expression: no activity
[6]
  luciferase regulation in response to ligand, riboswitch 15A5: robustly regulate luciferase expression

## CCCSS/C(CCO)=C(/C)N(C=O)Cc1cnc(C)nc1N [prosultiamine]
[2]; AML12 cells
  luciferase regulation in response to ligand, riboswitch 15D10: robustly regulate luciferase expression
[3]
  effect on luciferase expression, riboswitch TPPz: induce luciferase expression
[4]
  effect on luciferase expression, riboswitch TPPm: induce luciferase expression
[6]
  luciferase regulation in response to ligand, riboswitch 15A5: robustly regulate luciferase expression
[12]; [14]
  luciferase activity in mice, riboswitch 3H4: significantly increased
[12]; [15]
  time at which induced luciferase activity attenuated to pre-treatment level: 24 h
[12]; [16]
  time induced luciferase activity remained: ≥ 48 h
[13]; [14]
  luciferase activity in mice, riboswitch 6B4: significantly increased
[13]; [15]
  time at which induced luciferase activity attenuated to pre-treatment level: 24 h
[13]; [16]
  time induced luciferase activity remained: ≥ 48 h
